# Data: paper PMC5007466, “VCP recruitment to mitochondria causes mitophagy impairment and neurodegeneration in models of Huntington's disease” (Nature Communications, 2016)
# Columns and labels:
# Type in all cases: cell-based
# [1] = test system: HdhQ111 / HdhQ7 mouse striatal cells; test: Mitochondrial membrane potential (TMRM), mouse striatal cells
# Protocol: Immortalized striatal cell lines HdhQ111 mutant and HdhQ7 wt cells were obtained from the CHDI Foundation. Cells were cultured in DMEM supplemented with 10% FBS, 100 μg/ml penicillin, 100 μg ml^−1 streptomycin, and 400 μg ml^−1 G418. Cells were grown at 33 °C in a 5% CO2 incubator. Cells within 14 passages were used in all experiments.
# For silencing Htt and VCP in HD striatal cells, control siRNA, mouse Htt and mouse VCP siRNA were purchased from Thermo Fisher Scientific. HdhQ7 and HdhQ111 cells were transfected either with control siRNA, or Htt or VCP siRNA using TransIT-TKO Transfection Reagent (Mirus Bio, LLC), according to the manufacturer's instructions. The sequences for the siRNAs used in this study are as follows: mouse Htt, 5′-[…]-3′; Mouse VCP, 5′-GAGAGCAACCUUCGUAAG-3′; control non-targeting siRNA, 5′-TTCTCCGAACGTGTCACGT-3′.
# To determine mitochondrial mass in cultures, cells were stained with antibodies against Tom20 or stained with Mitotracker green. The fluorescent density of Tom20 (1:500) or mitotracker green was quantitated using NIH Image J software. To measure the membrane potential of mitochondria in cultures, cells were incubated with 0.25 μM tetra-methyl rhodamine (Invitrogen Life Science) for 20 min at 37 °C. To determine lysosomal activity, cells were incubated with Lyso-ID Red dye (Enzo Life Science) for 30 min at 37 °C. The images were visualized by microscope and quantitation of the density of red fluorescence was carried out using NIH ImageJ software. For immunocytochemistry study, at least 100 cells per group were counted and quantitated by an observer blind to experimental conditions.
# [2] = test system: HdhQ111 mouse striatal cells; test: GFP-LC3B puncta; conditions: 3 uM/day for 3 days
# Protocol: Figure 5 Treatment of HV-3 reduces excessive mitophagy in HD cell cultures and HD mouse brains. (a) HdhQ7 and HdhQ111 cells were treated with control siRNA (con) or VCP siRNA (siVCP) for 48 h. Mitochondria were isolated and LC3 mitochondrial levels were determined by WB. Representative blots are from three independent experiments. The quantitation of LC3 II levels on mitochondria is provided on the right. VADC was used as a loading control. (b) Flag-VCP and GFP-LC3B were co-transfected into wild-type striatal cells. Mitochondria were isolated after 36 h of transfection. The GFP-LC3B levels on mitochondria were examined by WB. VDAC was used as a loading control. Representative blots are from three independent experiments. Histogram: quantitation of GFP-LC3B mitochondrial protein level. HdhQ7 and HdhQ111 cells were treated with control peptide TAT or peptide HV-3 (3 uM/day for 3 days). (c) HdhQ111 cells were transfected with GFP-LC3B for 24 h. The number of GFP-LC3B puncta was quantitated and shown in the histogram. Scale bars: 10 μm. (d) Enzyme activity of lysosomal Cathepsin B was measured using a Cathepsin B assay kit. […] (e) Mitochondrial mass was measured by the fluorescent density of Mitotracker green. […] Histogram: the number of mitophagosomes per 100 μm^2 was counted and quantitated. Fifteen random areas in the striatum of each animal were analyzed. […]
# VCP/mtHtt interaction = target: T1, VCP/mtHtt interaction (Homo sapiens, UniProt P55072); test: Co-immunoprecipitation of GFP-VCP and Myc-73Q FL (mtHtt) in HEK293 cells; conditions: HEK293, Myc-73Q FL + GFP-VCP, 48 h
# T1 construct: The full-length VCP wt and GFP-LC3B plasmids were obtained from Addgene; expressed in transfected cells; host or cells: HEK293
# Protocol: (b) Stick drawings of VCP and Htt main domains. […] Immunoprecipitates were analysed by WB with the indicated antibodies. […] VCP mitochondrial levels were determined by WB. Loading control: VDAC. Data are mean±s.e.m. (g–i) ANOVA with Holm-Sidak post hoc test.
# Myc-tagged full-length Htt with 23Q or 73Q plasmid was obtained from the CHDI foundation. The full-length VCP wt and GFP-LC3B plasmids were obtained from Addgene. To construct the mitochondria-targeting VCP plasmid, CMV-mito-GEM-GECO1 was digested with BamHI and HindIII, and VCP was PCR-amplified and inserted into the plasmid backbone. Site mutation of the VCP plasmid was performed using a site-mutagenesis kit (Agilent Technologies, Inc.). Cells were transfected with TransIT-2020 (Mirus Bio, LLC) following the manufacturer's protocol.
# Human cervix carcinoma cells (HeLa cells) and HEK293 cells were maintained in DMEM supplemented with 10% FBS and 1% (v/v) penicillin/streptomycin.
# Supplementary Figure 4: Rational design of a peptide inhibitor to block VCP/Htt interaction. […] Quantitation of VCP/Htt binding was shown below the blot as the m ean of three independent experiments. […] The blots of the bindings of mtHtt/VCP were quantitated with NIH Image J software. The IC50 was calculated. […]
smiles,measurement,setting,value
CSCC[C@H](NC(=O)[C@@H](NC(=O)[C@H](CC(C)C)NC(=O)[C@@H](NC(=O)[C@H](Cc1c[nH]cn1)NC(=O)CCCCCNC(=O)[C@H](CCCNC(=N)N)NC(=O)[C@H](CCCNC(=N)N)NC(=O)[C@H](CCCNC(=N)N)NC(=O)[C@H](CCC(N)=O)NC(=O)[C@H](CCCNC(=N)N)NC(=O)[C@H](CCCNC(=N)N)NC(=O)[C@H](CCCCN)NC(=O)[C@H](CCCCN)NC(=O)[C@H](CCCNC(=N)N)NC(=O)CNC(=O)[C@@H](N)Cc1ccc(O)cc1)C(C)C)C(C)C)C(=O)N[C@@H](CS)C(=O)N[C@@H](C)C(=O)N[C@H](C(N)=O)[C@@H](C)O [HV-3],mitochondrial membrane potential,"[1]; HdhQ111 cells, HV-3 3 uM/day for 3 days versus TAT",markedly improved the mitochondrial membrane potential
same,mitochondrial membrane potential in presence of VCP siRNA,"[1]; HdhQ111 cells, HV-3 + VCP siRNA",no additional protection on the MMP
same,"mitochondrial membrane potential, wt",[1]; wt counterparts of the HD models,only minor effects
same,number of GFP-LC3B puncta,[2],reduced by treatment with HV-3
same,IC50,"VCP/mtHtt interaction; 0 to 4 µM, IP/WB quantitated, read-out: IC50 blocking VCP/mtHtt interaction",2110 nM
same,block of VCP/mtHtt interaction,"VCP/mtHtt interaction; 3 µM/day, n = 3",only HV-3 peptide significantly blocked the VCP/mtHtt interaction
